# Experimental data reported in patent EP4700021A1, “NOVEL COMPOUND AND PHARMACEUTICAL COMPOSITION COMPRISING SAME AS ACTIVE INGREDIENT” (Sapiensbio Inc., priority 2023, dated 2025).
# Test system: α-SMA
# Assay: in vitro α-SMA expression inhibition (immunostaining, confocal microscopy) in TGF-β1-treated MRC-5 cells
# Type: cell-based, human
# Details: Homo sapiens, TGF-β1 (5 ng/mL), 72 hours, standardized using GAPDH
# Description: When scars are generated in tissue, fibroblasts undergo fibroblast-to-myofibroblast transition (FMT), and the resulting myofibroblasts produce the extracellular matrix, leading to tissue fibrosis. α-SMA is a representative biomarker of myofibroblasts, and its expression greatly increases as FMT progresses. Accordingly, through the evaluation of α-SMA expression inhibitory activity, the efficacy of the compounds in inhibiting fibrosis may be evaluated. Therefore, the inhibitory activity of the compounds of the present invention on α-SMA expression was evaluated in cells. To more accurately evaluate the inhibition of α-SMA expression, IC50 values were determined by treating human lung-derived fibroblasts (MRC-5 cells) with the compounds of the present invention in a concentration-dependent manner.
# Specifically, 2 hours after the MRC-5 cells were treated with DMSO or compounds dissolved in serum containing 0.5% fetal bovine serum (FBS) in a concentration-dependent manner, fibrosis was induced by treatment with TGF-β1 (5 ng/mL). After 72 hours, the cells were immobilized with a 2% paraformaldehyde solution for 10 minutes, and to impart cell membrane permeability, a 0.1% Triton X-100 solution was treated for 10 minutes, and a 1% bovine serum albumin (BSA) solution was treated to prevent non-specific binding. For immunostaining, anti-GAPDH (BIO-RAD) was first treated as a primary antibody, and Alexa Fluor™ Plus 555 for GAPDH labeling was used as a secondary antibody. For α-SMA staining, an FITC fluorescence-tagged α-SMA primary antibody was used, and thus the increase and decrease in α-SMA caused by the compounds were evaluated. The immunohistochemical experimental results were confirmed with a STELLARIS 5 confocal microscope (Leica), and FITC-stained α-SMA was standardized using GAPDH labeled with Alexa FluorTM Plus 555 for quantification. The IC50 of the compounds according to the present invention was calculated through statistical analysis (linear mixed effects model). […]
row,Compound,IC50
1,"CN1CCC(NC(=S)N2CCN(c3cnccn3)c3ccccc32)CC1 [Compound 29, N-(1-methylpiperidin-4-yl)-4-(pyrazin-2-yl)-3,4-dihydroquinoxaline-1 (2H)-carbothioamide]",1 to 10 µM
2,"CN1CC[C@@H](COC(=O)N2CCN(c3cnccn3)c3ccccc32)C1 [Compound 31, (R)-(1-methylpyrrolidin-3-yl)methyl-4-(pyrazin-2-yl)-3,4-dihydroquinoxaline-1(2H)-carboxylate]",1 to 10 µM
3,"O=C(N[C@@H]1CCNC1)N1CCN(Cc2ccccc2)c2ccccc21 [Compound 33, (R)-4-benzyl-N-(pyrrolidin-3-yl)-3,4-dihydroquinoxaline-1(2H)-carboxamide]",1 to 10 µM
4,"CN1CC[C@@H](NC(=O)N2CCN(Cc3ccccc3)c3ccccc32)C1 [Compound 34, (R)-4-benzyl-N-(1-methylpyrrolidin-3-yl)-3,4-dihydroquinoxaline-1(2H)-carboxamide]",1 to 10 µM
5,"CN[C@H]1CCN(C(=O)N2CCN(Cc3ccccc3)c3ccccc32)C1 [Compound 36, (S)-(4-benzyl-3,4-dihydroquinoxaline-1(2H)-yl)(3-(methylamino)pyrrolidin-1-yl)methanone]",10 to 30 µM
6,"N[C@H]1CCN(C(=O)N2CCN(Cc3ccccc3F)c3ccccc32)C1 [Compound 37, (S)-(3-aminopyrrolidin-1-yl)(4-(2-fluorobenzyl)-3,4-dihydroquinoxaline-1(2H)-yl)methanone]",1 to 10 µM
7,"CN[C@H]1CCN(C(=O)N2CCN(Cc3ccccc3F)c3ccccc32)C1 [Compound 38, (S)-(4-(2-fluorobenzyl)-3,4-dihydroquinoxaline-1(2H)-yl)(3-(methylamino)pyrrolidin-1-yl)methanone]",1 to 10 µM
8,"N[C@H]1CCN(C(=O)N2CCN(Cc3cccc(F)c3)c3ccccc32)C1 [Compound 39, (S)-(3-aminopyrrolidin-1-yl)(4-(3-fluorobenzyl)-3,4-dihydroquinoxaline-1(2H)-yl)methanone]",< 1 µM
9,"CC(C)N[C@H]1CCN(C(=O)N2CCN(Cc3ccc(F)cc3)c3ccccc32)C1 [Compound 42, (S)-(4-(4-fluorobenzyl)-3,4-dihydroquinoxaline-1(2H)-yl)(3-(isopropylamino)pyrrolidin-1-yl)methanone]",1 to 10 µM
10,"CN(C)[C@H]1CCN(C(=O)N2CCN(Cc3ccccn3)c3ccccc32)C1 [Compound 46, (S)-(3-(dimethylamino)pyrrolidin-1-yl)(4-(pyridin-2-ylmethyl)-3,4-dihydroquinoxaline-1(2H)-yl)methanone]",≤ 30 µM
11,"CC(C)N[C@H]1CCN(C(=O)N2CCN(Cc3ccccn3)c3ccccc32)C1 [Compound 47, (S)-(3-(isopropylamino)pyrrolidin-1-yl)(4-(pyridin-2-ylmethyl)-3,4-dihydroquinoxaline-1(2H)-yl)methanone]",≤ 30 µM
12,"O=C(NC[C@H]1CCCN1)N1CCN(Cc2ccccn2)c2ccccc21 [Compound 52, (R)-4-(pyridin-2-ylmethyl)-N-(pyrrolidin-2-ylmethyl)-3,4-dihydroquinoxaline-1(2H)-carboxamide]",1 to 10 µM
13,"O=C(NC1CCNCC1)N1CCN(Cc2ccccn2)c2ccccc21 [Compound 53, N-(piperidin-4-yl)-4-(pyridin-2-ylmethyl)-3,4-dihydroquinoxaline-1(2H)-carboxamide]",1 to 10 µM
14,"O=C(NC1COC1)N1CCN(Cc2ccccn2)c2ccccc21 [Compound 54, N-(oxetan-3-yl)-4-(pyridin-2-ylmethyl)-3,4-dihydroquinoxaline-1(2H)-carboxamide]",< 1 µM
15,"CC1(NC(=O)N2CCN(Cc3ccccn3)c3ccccc32)COC1 [Compound 55, N-(3-Methyloxetan-3-yl)-4-(pyridin-2-ylmethyl)-3,4-dihydroquinoxaline-1(2H)-carboxamide]",< 1 µM
16,"O=C(NCC1COC1)N1CCN(Cc2ccccn2)c2ccccc21 [Compound 56, N-(oxetan-3-ylmethyl)-4-(pyridin-2-ylmethyl)-3,4-dihydroquinoxaline-1(2H)-carboxamide]",10 to 30 µM
